Publication PMC10016038, “Enhanced Endosomal Signaling and Desensitization of GLP-1R vs GIPR in Pancreatic Beta Cells” (Endocrinology, 2023)
Ends that are not written are not given here.

Experiments:
SNAP-tagged human GIPR [1] = experiment: TMR agonist intracellular accumulation, INS-1 832/3 SNAP-GIPR; type: cell-based; conditions: 5 minutes poststimulation
Method: (§1) Finally, using alternative fluorescent conjugates labeled with TMR, the amount of TMR-labeled agonist intracellular accumulation during the first 5 minutes of stimulation for each receptor correlated with the previously shown receptor internalization results in INS-1 832/3 SNAP-GLP-1R/SNAP-GIPR cell lines (Supplemental Fig. 3A and 3B) ([32]).

[2] = tested on: endogenous GIPR in mouse islets; experiment: Confocal imaging of TMR agonist in mouse primary islets, GIPR; type: cell-based
Method: (§2) Nondiabetic mice of both sexes were used for islet isolation. Briefly, pancreata were infused via the common bile duct with RPMI-1640 medium containing 1 mg/mL collagenase from Clostridium histolyticum (Nordmark Biochemicals), dissected, and incubated in a water bath at 37 °C for 10 minutes. Islets were subsequently washed and purified using a Histopaque gradient (Histopaque-1119, 11191, Sigma-Aldrich, and Histopaque-1083, 10831, Sigma-Aldrich). Isolated islets were allowed to recover overnight at 37 °C in 5% CO2 in RPMI-1640 supplemented with 10% FBS and 1% penicillin/streptomycin. All procedures were carried out in accordance with the regulations of the UK Home Office Animals (Scientific Procedures) Act and the Imperial College London guidelines for animal care. Animal protocols were approved by the Home Office Animals in Science Regulation Unit (ASRU) under Project License number PP7151519 to Dr. A. Martinez-Sanchez.
(§3) Figure 1. Beta cell GLP-1R vs GIPR trafficking patterns. […] (B) Rates of GLP-1R vs GIPR internalization (k values) derived from (A) by one-phase association (with Y0 = 0) of baseline-deleted DERET data; n = 5. (C) GLP-1R vs GIPR internalization dose response curves measured by high-content microscopy assay (HCA) in the same cells as above. […] (F) Quantification of surface GLP-1R vs GIPR levels in WT mouse islets using fluorescent agonist uptake data from (E); data corrected for binding affinity differences between both agonists; n = 4. (G) GLP-1R vs GIPR recycling dose response curves measured by high-content microscopy assay (HCA) in cells from (C); n = 5. […] Nuclei (DAPI), blue. Data are mean ± SEM, compared by paired or unpaired t tests, or two-way ANOVA with Sidak's post hoc test; *P < .05, **P < .01, ***P < .001; size bars: 10 µm.

GLP-1R = conditions: tirzepatide; cited from earlier work
Description: In summary, we have described here significant differences in the trafficking and spatiotemporal signaling propensities of the 2 incretin receptors following their stimulation with native agonists in beta cells. While the GLP-1R is a rapidly internalizing receptor with increased propensity for β-arrestin 2 recruitment, endosomal localization and activity, and lysosomal degradation, the GIPR is associated with reduced coupling to G proteins and β-arrestin 2, as well as reduced internalization and endosomal activity, increased recycling, and an overall increase in beta cell signaling despite hig ...

T2D patients = conditions: dual GLP-1R/GIPR targeting peptides; cited from earlier work
Description: Incretin receptors, comprising the glucagon-like peptide-1 receptor (GLP-1R) and the glucose-dependent insulinotropic polypeptide receptor (GIPR), are key components of the glucoregulatory system due to their capacity to prevent postprandial hyperglycemia by amplifying insulin secretion from pancreatic beta cells in a glucose-dependent manner ([1]). Since their discovery and cloning in the 1990s ([2-4]), both receptors have been recognized for their glucose lowering potential. However, while the GLP-1R has successfully been exploited for the treatment of type 2 diabetes (T2D), with several pha ...

[3] = tested on: endogenous GLP-1R in mouse islets; experiment: Confocal imaging of TMR agonist in mouse primary islets, GLP-1R; type: cell-based; conditions: 100 nM GLP-1-TMR; 15 minutes
Method: as §2
Figure 1. […] (C) GLP-1R vs GIPR internalization dose response curves measured by high-content microscopy assay (HCA) in the same cells as above. […] (F) Quantification of surface GLP-1R vs GIPR levels in WT mouse islets using fluorescent agonist uptake data from (E); data corrected for binding affinity differences between both agonists; n = 4. (G) GLP-1R vs GIPR recycling dose response curves measured by high-content microscopy assay (HCA) in cells from (C); n = 5. […]

SNAP-tagged human GIPR [4] = experiment: Confocal microscopy of co-internalization with FITC agonist, SNAP-GIPR; type: cell-based
Description: as §3, §1

Substance: GIP-TMR: tetramethylrhodamine (TMR) conjugate of GIP(1-42) (YAEGTFISDYSIAMDKIHQQDFVNWLLAQKGKKNDWKHNITQ; also: TMR conjugate, position not given here)
- Intracellular accumulation of TMR-labeled agonist (SNAP-tagged human GIPR [1]): negligible
- GIP-TMR signal in islets at 100 nM ([2]; 100 nM, not shown): virtually undetectable
- Localization of TMR agonist in WT mouse primary islets ([2]; 1 µM GIP-TMR, 15 minutes): could be detected at the plasma membrane
- GIP-TMR uptake compared with GLP-1-TMR, dispersed mouse islet cells ([2]; dispersed mouse islet cells): markedly reduced
- TMR agonist signal in WT islets, GIP-TMR vs GLP-1-TMR ([2]; quantified in Fig. 1F, corrected for binding affinity differences, n = 4): significantly lower
- GIP-TMR signal at the plasma membrane, Gipr-/- (KO) islets ([2]; same concentration of GIP-TMR as WT (1 µM), specificity control): absent

Substance: tirzepatide
- Internalization and β-arrestin 2 recruitment at the GLP-1R (GLP-1R): reduced internalization and β-arrestin 2 recruitment at the GLP-1R
- Efficacy compared with approved GLP-1R agonist monotherapies (T2D patients): enhanced efficacy

Substance: GLP-1-TMR: tetramethylrhodamine (TMR) conjugate of GLP-1(7-36)NH2 (HAEGTFTSDVSSYLEGQAAKEFIAWLVKGR-NH2; also: TMR conjugate, position not given here)
- Localization of TMR agonist in WT mouse primary islets [3]: predominantly localized in punctate structures reminiscent of endosomes

Substance: GIP-FITC: fluorescein isothiocyanate (FITC) conjugate of GIP(1-42) (YAEGTFISDYSIAMDKIHQQDFVNWLLAQKGKKNDWKHNITQ; also: FITC conjugate, position not given here)
- SNAP-GIPR endocytosis (SNAP-tagged human GIPR [4]; 30 min, 100 nM GIP-FITC): only partial SNAP-GIPR endocytosis
- Intracellular GIP-FITC signal accumulation (SNAP-tagged human GIPR [4]; after 30 minutes of agonist stimulation): some intracellular GIP-FITC signal accumulation
